Counter-ions that a name gives are not always drawn.
Assays:
[1] = target: T1, PIM1 serine/threonine kinase (Homo sapiens, UniProt P11309); test: PIM1 serine/threonine kinase inhibitory effect; format: biochemical; settings: PIM1 serine/threonine kinase activity; ATP 40 μM; 30° C., 30 minutes
T1 construct: purchased Carna Bioscience, Inc
Method in brief: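 Compounds were tested in duplicate from 0.01 to 10000 nM final against PIM1 kinase (0.15 μg/ml). The reaction ran for 30 minutes at 30° C with 40 μM ATP and 0.5 μM biotin-tagged substrate at pH 7.0. Phosphorylation was read by time-resolved FRET (OD665/OD620) after 1 h; IC50 by non-linear fit.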

[2] = target: PIM1 transgenic cells (Ba/F3) (Homo sapiens, UniProt P11309); test: Proliferation inhibitory effect on PIM1 transgenic cells; format: cell-based, mouse; settings: proliferation inhibition, 72 hours, Cell Counting Kit-8, read-out: PIM1 IC50
Chain of PIM1 transgenic cells (Ba/F3) (P11309 whole entry, stated change not applied): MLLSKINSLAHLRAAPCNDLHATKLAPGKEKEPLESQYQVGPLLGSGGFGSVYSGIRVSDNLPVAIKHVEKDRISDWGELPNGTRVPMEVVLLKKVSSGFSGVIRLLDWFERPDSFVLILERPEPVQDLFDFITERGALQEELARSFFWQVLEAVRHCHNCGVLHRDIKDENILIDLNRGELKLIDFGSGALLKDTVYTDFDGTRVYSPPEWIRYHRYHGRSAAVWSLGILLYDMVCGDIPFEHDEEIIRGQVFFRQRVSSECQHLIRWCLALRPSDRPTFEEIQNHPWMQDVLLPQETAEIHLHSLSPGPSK
Method in brief: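 Mouse Ba/F3 pro-B cells were retrovirally transduced with human PIM1 so that their proliferation depends on PIM1. Cells were treated with compound at 1–10000 nM final for 72 h, then read by CCK-8 (OD450−OD650). Inhibition was set against DMSO (0%) and no-cell blank (100%), and IC50 was obtained by two-parameter logistic regression.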

[3] = target: T2, PIM3 serine/threonine kinase (Homo sapiens, UniProt Q86V86); test: PIM3 serine/threonine kinase inhibitory effect; format: biochemical; settings: PIM3 serine/threonine kinase activity; ATP 10 μM; 30° C., 30 minutes
T2 construct: purchased Carna Bioscience, Inc
Protocol: (§1) Each test substance was prepared to 10 mM with dimethylsulfoxide (DMSO), and further diluted with DMSO so as to have concentrations of 1000, 300, 100, 30, 10, 3, 1, 0.3, 0.1, 0.03, 0.01, and 0.001 μM. Moreover, each dilution was further diluted 33.3-fold with an assay buffer to prepare a test substance solution. The composition of the assay buffer was 50 mM HEPES (pH 7.0), 0.02% NaN3, 0.01% Bovine Serum Albumin, 0.1 mM Orthovanadate, 1 mM Dithiothreitol, and 5 mM MgCl2.
(§2) 5 μL of each test substance solution was added to 384-well plates (n=2), and then 2.5 μL of a substrate solution (substrate 3-biotin (Cisbio Bioassays SAS), final concentration in the reaction solution: 0.5 μM) and 2.5 μL of an ATP solution (in the cases of PIM1, 2, 3, the final concentrations in the reaction solutions were 40, 2, and 10 μM, respectively) were added, 5 μL of each of PIM1, 2, 3 serine/threonine kinase solutions (Carna Bioscience, Inc., the final concentrations in the reaction solutions were 0.15, 1.6, and 0.25 μg/ml, respectively) was finally added, and the mixture was reacted at 30° C. for 30 minutes. The test substance concentrations in the reaction solutions are 10000, 3000, 1000, 300, 100, 30, 10, 3, 1, 0.3, 0.1, and 0.01 nM.
(§3) Thereafter, 15 μL of each detection solution (62.5 nM Streptavidin-XL665 (Cisbio Bioassays SAS), […] STK antibody-Cryptate (Cisbio Bioassays SAS), 50 mM HEPES (pH 7.0), 0.8 M KF, 0.1% Bovine Serum Albumin, 20 mM ethylenediaminetetraacetic acid) was added to each well. After stirring, the mixture was reacted at 30° C. for 1 hour. Absorbance (OD620, OD665) at 620 and 665 nm was measured with a microplate reader (SpectraMax M5e, Molecular Devices, LLC).
(§4) Non-linear regression analysis was performed by an SAS system (SAS Institute Inc.) using the ratio (OD665/OD620) of the measured absorbance to calculate a test substance concentration (IC50) that inhibits PIM1 serine/threonine kinase activity by 50%.
(§5) For the compounds with the following Example numbers, in addition to the above PIM1 serine/threonine kinase activity (IC50), test substance concentrations (IC50) that inhibit PIM2 serine/threonine kinase activity and PIM3 serine/threonine kinase activity by 50% were calculated.

[4] = target: T3, PIM2 serine/threonine kinase (Homo sapiens, UniProt Q9P1W9); test: PIM2 serine/threonine kinase inhibitory effect; format: biochemical; settings: PIM2 serine/threonine kinase activity; ATP 2 μM; 30° C., 30 minutes
T3 construct: purchased Carna Bioscience, Inc
T3 sequence (Q9P1W9 whole entry): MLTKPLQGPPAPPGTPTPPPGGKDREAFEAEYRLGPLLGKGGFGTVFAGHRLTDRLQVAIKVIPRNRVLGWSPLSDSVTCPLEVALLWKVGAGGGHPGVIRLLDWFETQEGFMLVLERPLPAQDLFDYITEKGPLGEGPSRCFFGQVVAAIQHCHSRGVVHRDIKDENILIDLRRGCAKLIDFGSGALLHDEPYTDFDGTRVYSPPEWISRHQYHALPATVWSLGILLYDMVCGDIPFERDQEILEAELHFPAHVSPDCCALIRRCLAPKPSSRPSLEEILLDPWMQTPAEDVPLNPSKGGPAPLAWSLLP
Protocol: as §1, §2, §3, §4, §5

[5] = system: graft-versus-host disease model CB6F1 mice; test: Lymphocyte proliferation inhibitory effect using graft-versus-host disease model animals (splenomegaly formation); format: in vivo; settings: Mus musculus, 240 h, oral, twice a day for 10 days, GVHD model CB6F1 mice, read-out: Inhibition rate (%) (splenomegaly formation); for inhibition in vivo at 20 mg/kg: single dose 20 mg/kg
Protocol: BALB/c mice (8-week-aged female) were euthanized, and then the spleen was removed from each mouse. Then, hemolysis treatment was performed to isolate spleen cells. The obtained spleen cells were intravenously transplanted into CB6F1 mice (8-week-aged female), which are C57BL/6 and BALB/c F1 mice, to prepare a model, and splenomegaly was induced. For transplantation, spleen cells for 1.2 BALB/c mouse were used for one CB6F1 mouse.
Each test substance shown in Table 64 was weighed and dissolved in a 0.5% methyl cellulose solution, thereby preparing test substance solutions of 0.3 to 10 mg/mL.
A vehicle (0.5% methyl cellulose solution) or test substance was orally administered to each CB6F1 mouse after transplantation at a dose of 3 to 50 mg/kg in terms of body weight twice a day for 10 days from the day after transplantation. The mouse was euthanized on the 11th day from the start of administration, then the spleen was removed therefrom, and the wet weight of the spleen was measured. For each of CB6F1 mice that had not undergone transplantation as a control group, the wet weight of the spleen was also measured.
The splenomegaly formation inhibition rate when the spleen weights of the mice to which the vehicle was administered after transplantation and the mice on which transplantation had not been performed were 0% and 100%, respectively, was calculated.

T1 sequence (P11309 whole entry): as the sequence (P11309 whole entry, stated change not applied) above

| SMILES | IC50 [1] [nM] | GI50 [2] [nM] | IC50 [3] [nM] | IC50 [4] [nM] | inhibition in vivo at 10 mg/kg ([5]; single dose 10 mg/kg) [%] | inhibition in vivo at 20 mg/kg [5] [%] | inhibition in vivo at 6 mg/kg ([5]; single dose 6 mg/kg) [%] |
| --- | --- | --- | --- | --- | --- | --- | --- |
| N[C@H]1CC[C@H](CNc2cc(-c3n[nH]c(=O)o3)ccc2Cl)CC1 [Example 61, 5-[3-({[(1r,4r)-4-aminocyclohexyl]methyl}amino)-4-chlorophenyl]-1,3,4-oxadiazol-2(3H)-one hydrochloride] | 1 | 44 | 5 | 19 |  |  |  |
| N[C@H]1CC[C@H](CNc2cc(-c3n[nH]c(=O)o3)cc(F)c2C(F)(F)F)CC1 [Example 69, 5-[3-({[(1r,4r)-4-aminocyclohexyl]methyl}amino)-5-fluoro-4-(trifluoromethyl)phenyl]-1,3,4-oxadiazol-2(3H)-one hydrochloride] | 1.1 | 37 | 4 | 7 |  |  |  |
| CC(Nc1cc(-c2n[nH]c(=O)o2)ccc1C(F)(F)F)C1CCNCC1 (stereo not drawn) [Example 52, 5-[3-{[1-(piperidin-4-yl)ethyl]amino}-4-(trifluoromethyl)phenyl]-1,3,4-oxadiazol-2(3H)-one hydrochloride] | 4.2 | 59 | 12 | 19 |  |  |  |
| N[C@H]1CC[C@H](Nc2cc(-c3n[nH]c(=O)o3)ccc2C(F)(F)F)CC1 [Example 34, 5-[3-{[(1r,4r)-4-aminocyclohexyl]amino}-4-(trifluoromethyl)phenyl]-1,3,4-oxadiazol-2(3H)-one hydrochloride] | 4 | 910 | 16 | 25 |  |  |  |
| NC[C@H]1CC[C@H](Nc2cc(-c3n[nH]c(=O)o3)ccc2C(F)(F)F)CC1 [Example 37, 5-[3-{[(1r,4r)-4-(aminomethyl)cyclohexyl]amino}-4-(trifluoromethyl)phenyl]-1,3,4-oxadiazol-2(3H)-one hydrochloride] | 2 | 280 | 10 | 11 |  |  |  |
| C[C@@H]1CNCC[C@@H]1[C@H](C)Nc1cc(-c2n[nH]c(=O)o2)ccc1C(F)(F)F [Example 217, 5-[3-({(1S)-1-[(3S,4S)-3-methylpiperidin-4-yl]ethyl}amino)-4-(trifluoromethyl)phenyl]-1,3,4-oxadiazol-2(3H)-one] | 2.8 | 26 |  |  | 36.3 | 41.7 |  |
| Cc1c(F)cc(-c2n[nH]c(=O)o2)cc1N[C@@H](C)[C@H]1CCNC[C@H]1C [Example 228] | 4.7 | 15 |  |  |  | 33.3 | 36.7 |
| C[C@@H](Nc1cc(-c2n[nH]c(=O)o2)ccc1C(F)(F)F)C1CCNCC1 [Example 59, 5-[3-{[(1R)-1-(piperidin-4-yl)ethyl]amino}-4-(trifluoromethyl)phenyl]-1,3,4-oxadiazol-2(3H)-one hydrochloride] | 16 | 320 | 85 | 98 |  |  |  |
| N[C@H]1CC[C@H](CNc2cc(-c3n[nH]c(=O)o3)ccc2OC(F)(F)F)CC1 [Example 66, 5-[3-({[(1r,4r)-4-aminocyclohexyl]methyl}amino)-4-(trifluoromethoxy)phenyl]-1,3,4-oxadiazol-2(3H)-one hydrochloride] | 4.7 | 190 | 18 | 90 |  |  |  |

Now from value to molecule, other results behind:

| IC50 [1] [nM] | GI50 [2] [nM] | IC50 [3] [nM] | IC50 [4] [nM] | SMILES | inhibition in vivo at 10 mg/kg ([5]; single dose 10 mg/kg) [%] | inhibition in vivo at 20 mg/kg [5] [%] | inhibition in vivo at 6 mg/kg ([5]; single dose 6 mg/kg) [%] |
| --- | --- | --- | --- | --- | --- | --- | --- |
| 1.4 | 61 | 5 | 18 | N[C@H]1CC[C@H](CNc2cc(-c3n[nH]c(=O)o3)ccc2Br)CC1 [Example 68, 5-[3-({[(1r,4r)-4-aminocyclohexyl]methyl}amino)-4-bromophenyl]-1,3,4-oxadiazol-2(3H)-one hydrochloride] |  |  |  |
| 0.7 | 28 | 5 | 13 | CC(Nc1cc(-c2n[nH]c(=O)o2)ccc1C(F)(F)F)[C@H]1CC[C@H](N)CC1 (stereo partly drawn) [Example 63, 5-[3-({1-[(1r,4r)-4-aminocyclohexyl]ethyl}amino)-4-(trifluoromethyl)phenyl]-1,3,4-oxadiazol-2(3H)-one hydrochloride] |  |  |  |
| 0.7 | 34 | 5 | 14 | N[C@H]1CC[C@H](CNc2cc(-c3n[nH]c(=O)o3)ccc2C(F)(F)F)CC1 [Example 55, 5-[3-({[(1r,4r)-4-aminocyclohexyl]methyl}amino)-4-(trifluoromethyl)phenyl]-1,3,4-oxadiazol-2(3H)-one hydrochloride] |  |  |  |
| 64 |  | 340 | 220 | NCc1cccc(-c2cc(-c3n[nH]c(=O)o3)ccc2Cl)c1 [Example 18, 5-[3′-(aminomethyl)-6-chloro[1,1′-biphenyl]-3-yl]-1,3,4-oxadiazol-2(3H)-one hydrochloride] |  |  |  |
| 2.5 | 49 |  |  | Cc1c(F)cc(-c2n[nH]c(=O)o2)cc1N[C@@H](C)[C@H]1CC[C@H](N)CC1 [Example 172, 5-[3-({(1S)-1-[(1r,4S)-4-aminocyclohexyl]ethyl}amino)-5-fluoro-4-methylphenyl]-1,3,4-oxadiazol-2(3H)-one dihydrochloride] |  | 19.3 |  |
| 180 |  | 740 | 770 | O=c1[nH]nc(-c2ccc(C(F)(F)F)c(-c3cncc(N4CCNCC4)c3)c2)o1 [Example 25, 5-{3-[5-(piperazin-1-yl)pyridin-3-yl]-4-(trifluoromethyl)phenyl}-1,3,4-oxadiazol-2(3H)-one dihydrochloride] |  |  |  |
